According to ChEMBL document CHEMBL1124928, “Inhibition of monoamine oxidases A and B by simple isoquinoline alkaloids: racemic and optically active 1,2,3,4-tetrahydro-, 3,4-dihydro-, and fully aromatic isoquinolines” (J Med Chem, 1990):
Structures can show the parent of a compound that is named as a salt.

Legend:
[1] = molecular target: T1, Amine oxidase [flavin-containing] B (Homo sapiens, UniProt P27338); test: Compounds were tested for inhibition against human liver Monoamine oxidase B (competitive inhibition was observed)
T1 sequence (P27338 whole entry): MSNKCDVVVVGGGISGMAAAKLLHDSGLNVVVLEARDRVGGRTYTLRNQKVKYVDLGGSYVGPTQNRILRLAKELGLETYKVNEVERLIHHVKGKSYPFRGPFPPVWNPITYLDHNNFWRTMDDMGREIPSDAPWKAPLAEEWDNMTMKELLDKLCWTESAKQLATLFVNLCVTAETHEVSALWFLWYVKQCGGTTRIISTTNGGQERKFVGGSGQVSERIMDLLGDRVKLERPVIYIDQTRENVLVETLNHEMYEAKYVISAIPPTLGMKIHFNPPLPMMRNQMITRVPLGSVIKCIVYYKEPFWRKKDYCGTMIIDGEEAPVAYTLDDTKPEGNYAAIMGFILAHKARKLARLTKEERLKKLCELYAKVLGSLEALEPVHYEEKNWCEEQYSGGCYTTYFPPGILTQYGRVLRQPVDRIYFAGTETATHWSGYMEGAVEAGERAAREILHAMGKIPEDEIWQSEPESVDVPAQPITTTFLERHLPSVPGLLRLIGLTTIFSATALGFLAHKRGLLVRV

[2] = molecular target: T2, Amine oxidase [flavin-containing] A (Homo sapiens, UniProt P21397);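 also: enzyme source: monoamine oxidase A taken from human placenta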
T2 sequence (P21397 whole entry): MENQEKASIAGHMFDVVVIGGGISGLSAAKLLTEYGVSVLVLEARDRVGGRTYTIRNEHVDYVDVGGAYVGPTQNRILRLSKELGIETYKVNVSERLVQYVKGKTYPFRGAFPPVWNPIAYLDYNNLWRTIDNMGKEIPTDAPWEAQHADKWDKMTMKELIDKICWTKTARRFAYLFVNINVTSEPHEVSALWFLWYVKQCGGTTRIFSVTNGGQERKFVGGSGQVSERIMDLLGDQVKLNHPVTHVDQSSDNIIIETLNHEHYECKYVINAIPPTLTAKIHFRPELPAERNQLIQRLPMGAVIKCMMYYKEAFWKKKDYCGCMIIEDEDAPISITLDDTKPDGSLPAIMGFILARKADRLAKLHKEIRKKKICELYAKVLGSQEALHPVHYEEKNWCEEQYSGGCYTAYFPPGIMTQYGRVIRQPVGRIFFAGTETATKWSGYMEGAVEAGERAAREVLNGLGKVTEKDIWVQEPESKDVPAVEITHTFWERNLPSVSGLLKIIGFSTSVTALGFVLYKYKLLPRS

[3] = molecular target: T2, Amine oxidase [flavin-containing] A; test: Compounds were tested for inhibition against human placental Monoamine oxidase A (mixed inhibition was observed)
[4] = molecular target: T2, Amine oxidase [flavin-containing] A; test: Compound was tested for inhibition against human placental Monoamine oxidase A (competitive inhibition was observed)
[5] = molecular target: T1, Amine oxidase [flavin-containing] B; test: Compounds were tested for inhibition against human liver Monoamine oxidase B (mixed inhibition was observed)

Structure (SMILES)	Ki [2] [µM]	other results
C[N+]1=Cc2ccccc2CC1	130	Ki [1]: 76 µM
COc1ccc2c(c1)CC[N+](C)=C2	4	Ki [1]: 15 µM
COc1cc2c(cc1OC)C(C)=NCC2	4	
COc1cc2c(C)nccc2cc1O [listing 1 of 2 here]	150	
COc1cc2c(C)nccc2cc1O [listing 2 of 2 here]	130	
COc1cc2c(cc1O)C(C)=NCC2	13	
COc1cc2c(cc1OC)CC[N+](C)=C2	6	
COc1cc2c(c(OC)c1OC)C(C)=NCC2	2	
COc1cc2ccncc2c(OC)c1OC	41	
COc1cc2c(cc1OC)[C@@H](C)NCC2	6	
COc1c(OC)c(OC)c2c(C)nccc2c1OC	17	
COc1cc2c(cc1OC)[C@@H](C)N(C)CC2	2	
COc1cc2c(cc1O)CCN[C@@H]2C	77	
CN1CCc2cc(O)c(O)cc2C1	1300	
C[C@H]1NCCc2cc(O)c(O)cc21	31	
COc1cc2c(cc1O)CCN=C2C	80	

Structure (SMILES)	Ki [2] [µM]	other results
COc1c2c(c(OC)c(OC)c1OC)C(C)=NCC2	10	
CN1CCc2ccccc2C1		Ki [1]: 1 µM
Cc1nccc2cc(O)c(O)cc12		Ki [3]: 130 µM
COc1cc2c(cc1OC)CN(C)CC2		Ki [4]: 27 µM; Ki [1]: 29 µM
COc1cc2c(cc1OC)[C@H](C)NCC2	186	
CC1c2cc(O)c(O)cc2CCN1C (racemic)	36	
COc1cc2c(c(OC)c1OC)C(C)NCC2 (racemic)	170	
COc1cc2c(c(OC)c1OC)C(C)N(C)CC2 (racemic)	160	
COc1c2c(c(OC)c(OC)c1OC)C(C)NCC2 (racemic)	1000	
COc1cc2c(cc1O)CCN(C)[C@H]2C (racemic)		Ki [3]: 70 µM; Ki [1]: 2300 µM
COc1cc2c(cc1O)C(C)NCC2 (racemic)	34	
COc1cc2c(cc1OC)[C@H](C)N(C)CC2 [CARNEGINE HYDROCHLORIDE]	102	Ki [5]: 1600 µM
COc1c2c(c(OC)c(OC)c1OC)CNCC2 [NORWEBERINE]		Ki [3]: 700 µM; Ki [5]: 580 µM
COc1cc2c(cc1O)CCN[C@H]2C [SALSOLINE HYDROCHLORIDE]	160	
C[C@@H]1NCCc2cc(O)c(O)cc21 [SALSOLINOL HYDROBROMIDE]	284	
COc1c2c(c(OC)c(OC)c1OC)CN(C)CC2 [WEBERINE]	260	Ki [1]: 1900 µM
